From ChEMBL document CHEMBL4476883, “Hydroxy formamide derivatives and their use” (2017)

Legend:
[1] = biological target: T1, Bone morphogenetic protein 1 (Homo sapiens, UniProt P13497); assay: Inhibition of C-terminal FLAG-6x-His epitope tagged and N-terminal human RAGE signal sequence tagged human BMP1 (23 to 721 amino acids) expressed in CHO-E1A cells pre-incubated for 10 mins before promyostatin peptide substrate addition and measured after 60 mins using 0.5 nM BMP1 by FRET based assay; format: cell-based
T1 sequence (P13497 whole entry): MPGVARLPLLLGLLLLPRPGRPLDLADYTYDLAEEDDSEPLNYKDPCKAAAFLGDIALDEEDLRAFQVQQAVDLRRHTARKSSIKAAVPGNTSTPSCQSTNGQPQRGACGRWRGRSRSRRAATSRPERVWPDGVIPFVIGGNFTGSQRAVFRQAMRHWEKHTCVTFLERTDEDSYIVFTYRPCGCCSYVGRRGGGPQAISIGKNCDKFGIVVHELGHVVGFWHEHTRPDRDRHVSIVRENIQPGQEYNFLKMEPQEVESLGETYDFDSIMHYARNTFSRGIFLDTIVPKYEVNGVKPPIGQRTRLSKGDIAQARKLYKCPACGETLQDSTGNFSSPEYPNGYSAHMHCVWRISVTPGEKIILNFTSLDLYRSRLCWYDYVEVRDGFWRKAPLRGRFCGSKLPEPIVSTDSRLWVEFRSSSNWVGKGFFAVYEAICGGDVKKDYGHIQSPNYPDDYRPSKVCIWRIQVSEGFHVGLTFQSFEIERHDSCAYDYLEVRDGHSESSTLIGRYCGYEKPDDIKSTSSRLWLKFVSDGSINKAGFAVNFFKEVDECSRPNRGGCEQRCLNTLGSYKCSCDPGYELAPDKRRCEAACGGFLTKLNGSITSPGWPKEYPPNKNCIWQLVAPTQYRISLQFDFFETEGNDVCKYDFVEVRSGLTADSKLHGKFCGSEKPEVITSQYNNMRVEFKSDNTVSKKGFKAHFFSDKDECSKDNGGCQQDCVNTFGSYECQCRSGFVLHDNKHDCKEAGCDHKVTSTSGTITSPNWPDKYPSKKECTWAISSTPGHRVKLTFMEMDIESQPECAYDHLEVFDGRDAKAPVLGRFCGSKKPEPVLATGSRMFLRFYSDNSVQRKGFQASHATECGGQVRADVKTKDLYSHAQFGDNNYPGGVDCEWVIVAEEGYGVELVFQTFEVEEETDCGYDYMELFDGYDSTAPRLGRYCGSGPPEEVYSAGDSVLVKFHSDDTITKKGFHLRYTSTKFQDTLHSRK

[2] = Reduction in PICP levels in human cardiac fibroblasts incubated for 24 to 48 hrs by ELISA; format: functional
[3] = biological target: T1, Bone morphogenetic protein 1; assay: Inhibition of C-terminal FLAG-6x-His epitope tagged and N-terminal human RAGE signal sequence tagged human BMP1 (23 to 721 amino acids) expressed in CHO-E1A cells pre-incubated for 10 mins before promyostatin peptide substrate addition and measured after 30 mins using 50 nM BMP1 by FRET based assay; format: cell-based
Tolloid-like protein 1 = Tolloid-like protein 1 (Homo sapiens, UniProt O43897, I156V/N221S/V284A); assay: Inhibition of recombinant human TLL1 I156V/N221S/V284A mutant expressed in CHOE1A cells pre-incubated for 10 mins before promyostatin peptide substrate addition and measured after 60 mins by FRET based assay; format: cell-based
Chain of Tolloid-like protein 1 (O43897 148-1013 I156V/N221S/V284A limits assumed): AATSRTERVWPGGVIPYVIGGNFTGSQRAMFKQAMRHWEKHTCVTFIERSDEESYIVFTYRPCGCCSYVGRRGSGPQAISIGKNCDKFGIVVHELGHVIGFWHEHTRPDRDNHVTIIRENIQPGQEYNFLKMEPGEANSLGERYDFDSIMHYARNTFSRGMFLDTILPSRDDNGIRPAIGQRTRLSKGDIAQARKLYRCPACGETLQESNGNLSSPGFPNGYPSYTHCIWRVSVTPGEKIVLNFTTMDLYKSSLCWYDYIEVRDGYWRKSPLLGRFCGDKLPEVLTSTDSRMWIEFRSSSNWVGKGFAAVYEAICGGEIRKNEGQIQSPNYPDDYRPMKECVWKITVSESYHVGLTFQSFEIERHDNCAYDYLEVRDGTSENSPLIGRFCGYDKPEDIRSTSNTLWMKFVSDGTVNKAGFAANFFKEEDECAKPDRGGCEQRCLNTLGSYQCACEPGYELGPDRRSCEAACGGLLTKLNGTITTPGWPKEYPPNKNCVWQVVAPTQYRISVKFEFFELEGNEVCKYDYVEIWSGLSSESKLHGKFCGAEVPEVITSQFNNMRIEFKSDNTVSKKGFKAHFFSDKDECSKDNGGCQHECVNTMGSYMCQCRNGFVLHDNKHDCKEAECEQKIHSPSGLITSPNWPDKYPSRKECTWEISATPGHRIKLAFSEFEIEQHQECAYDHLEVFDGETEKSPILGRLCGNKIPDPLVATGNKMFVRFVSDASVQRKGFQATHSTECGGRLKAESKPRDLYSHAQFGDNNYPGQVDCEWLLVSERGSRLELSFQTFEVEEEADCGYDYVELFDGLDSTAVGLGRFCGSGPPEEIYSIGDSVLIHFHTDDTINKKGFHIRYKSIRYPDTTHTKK

Tolloid-like protein 2 = biological target: T2, Tolloid-like protein 2 (Homo sapiens, UniProt Q9Y6L7); assay: Inhibition of C-terminal Avi-6x-His epitope tagged and N-terminal human RAGE signal sequence tagged recombinant human TLL2 (26 to 1015 amino acids) expressed in CHOE1A cells incubated for 60 mins with promyostatin peptide substrate by FRET based assay; format: cell-based
T2 sequence (Q9Y6L7 whole entry): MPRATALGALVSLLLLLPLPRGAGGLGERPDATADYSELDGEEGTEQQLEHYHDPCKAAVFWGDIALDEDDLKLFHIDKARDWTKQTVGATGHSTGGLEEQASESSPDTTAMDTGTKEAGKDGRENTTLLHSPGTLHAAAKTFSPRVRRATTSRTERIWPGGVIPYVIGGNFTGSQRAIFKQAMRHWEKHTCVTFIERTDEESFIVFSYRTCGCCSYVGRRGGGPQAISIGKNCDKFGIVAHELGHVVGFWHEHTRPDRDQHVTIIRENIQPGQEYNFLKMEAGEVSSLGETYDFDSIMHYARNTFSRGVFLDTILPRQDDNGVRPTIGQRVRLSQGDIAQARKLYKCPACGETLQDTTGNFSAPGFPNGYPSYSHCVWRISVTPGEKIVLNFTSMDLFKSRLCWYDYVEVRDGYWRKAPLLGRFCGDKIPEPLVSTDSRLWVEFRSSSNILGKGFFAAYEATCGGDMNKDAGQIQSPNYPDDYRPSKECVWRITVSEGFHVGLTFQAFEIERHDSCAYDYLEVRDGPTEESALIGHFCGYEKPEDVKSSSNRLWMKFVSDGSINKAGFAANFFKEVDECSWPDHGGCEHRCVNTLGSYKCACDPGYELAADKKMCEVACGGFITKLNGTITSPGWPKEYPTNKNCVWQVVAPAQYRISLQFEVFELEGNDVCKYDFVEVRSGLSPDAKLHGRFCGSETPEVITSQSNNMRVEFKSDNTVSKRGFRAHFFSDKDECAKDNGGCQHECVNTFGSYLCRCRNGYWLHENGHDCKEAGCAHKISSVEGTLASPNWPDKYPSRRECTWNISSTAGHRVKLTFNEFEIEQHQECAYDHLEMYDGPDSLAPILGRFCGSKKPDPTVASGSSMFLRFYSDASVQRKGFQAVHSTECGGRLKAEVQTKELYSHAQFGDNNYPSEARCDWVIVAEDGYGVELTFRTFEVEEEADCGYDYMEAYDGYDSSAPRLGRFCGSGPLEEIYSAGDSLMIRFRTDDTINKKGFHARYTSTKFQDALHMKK

IC50 [1] [nM]	IC50 [3] [nM]	IC50 (Tolloid-like protein 1) [nM]	IC50 (Tolloid-like protein 2) [nM]	Compound	IC50 [2] [nM]
< 126	< 251	< 398	< 631	O=CN(O)C[C@@H](CC1CCCC1)C(=O)NCNC(=O)c1cccc(-c2cccc(C(F)(F)F)c2)c1	< 20000
< 126	< 251	< 398	< 631	CCCCC[C@H](CN(O)C=O)C(=O)NCNC(=O)c1cccc(-c2cccc(C(=O)O)c2)c1	< 20000
< 126	< 251	< 398	< 631	CCCCC[C@H](CN(O)C=O)C(=O)NCNC(=O)c1cccc(-c2cccc(OC)c2F)c1	< 20000
< 126	< 251	< 398	< 631	CCCCC[C@H](CN(O)C=O)C(=O)NCNC(=O)c1cccc(-c2ccnn2CC)c1	< 20000
< 126	< 251	–	–	CCCCC[C@@H](C(=O)NCNC(=O)c1cc(C(=O)O)cc(-c2cc(OCC)cc(C(=O)O)c2)c1)[C@@H](CC)N(O)C=O	< 20000
< 126	< 251	< 398	< 631	CCCCC[C@H](CN(O)C=O)C(=O)NCNC(=O)c1cccc(-c2cc(OC)nnc2OC)c1	< 20000
< 126	< 251	< 398	< 631	CCCCC[C@H](CN(O)C=O)C(=O)NCNC(=O)c1cccc(-c2ccc(F)cc2)c1	< 20000
< 126	< 251	< 398	< 631	CCOc1cccc(-c2cccc(C(=O)NCNC(=O)[C@H](CC3CCCC3)CN(O)C=O)c2)c1	< 20000
< 126	< 251	< 398	< 631	CCCCC[C@H](CN(O)C=O)C(=O)NCNC(=O)c1cccc(-c2cccc(OC(C)C)c2)c1	< 20000
< 126	< 251	< 398	< 631	CCCCC[C@H](CN(O)C=O)C(=O)NCNC(=O)c1cccc(-c2cccc(C(C)C)c2)c1	< 20000
< 126	< 251	< 398	< 631	CCc1cccc(-c2cccc(C(=O)NCNC(=O)[C@H](CC3CCCC3)CN(O)C=O)c2)c1	< 20000
< 126	< 251	< 398	< 631	CCCCC[C@H](CN(O)C=O)C(=O)NCNC(=O)c1cccc(-c2cccc(O)c2)c1	< 20000
< 126	< 251	< 398	< 631	CCCCC[C@H](CN(O)C=O)C(=O)NCNC(=O)c1cccc(-c2cc(OC)ccc2OC)c1	< 20000
< 126	< 251	< 398	< 631	CCCCC[C@H](CN(O)C=O)C(=O)NCNC(=O)c1cccc(-c2cccc(F)c2)c1	< 20000
< 126	< 251	< 398	< 631	CCCCC[C@H](CN(O)C=O)C(=O)NCNC(=O)c1cccc(-c2cccc(C(N)=O)c2)c1	< 20000
< 126	< 251	< 398	< 631	CCCCC[C@H](CN(O)C=O)C(=O)NCNC(=O)c1cccc(-c2cccc(NS(C)(=O)=O)c2)c1	< 20000
< 126	< 251	< 398	< 631	COc1cncc(-c2cccc(C(=O)NCNC(=O)[C@H](CC3CCCC3)CN(O)C=O)c2)c1	< 20000
< 126	< 251	< 398	< 631	CCCCC[C@H](CN(O)C=O)C(=O)NCNC(=O)c1cccc(-c2ccc(OC)cc2)c1	< 20000
< 126	< 251	< 398	< 631	CCCCC[C@H](CN(O)C=O)C(=O)NCNC(=O)c1cccc(-c2cccc(S(N)(=O)=O)c2)c1	< 20000
< 126	< 251	< 398	< 631	CCCCC[C@H](CN(O)C=O)C(=O)NCNC(=O)c1cccc(-c2cncc(OC)c2)c1	< 20000
< 126	< 251	< 398	< 631	CCCCC[C@H](CN(O)C=O)C(=O)NCNC(=O)c1cccc(-c2ccc(N(C)C)cc2)c1	< 20000
< 126	< 251	< 398	< 631	CCCCC[C@H](CN(O)C=O)C(=O)NCNC(=O)c1cccc(-c2cccc(N(C)C)c2)c1	< 20000
< 126	< 251	< 398	< 631	CCCCC[C@H](CN(O)C=O)C(=O)NCNC(=O)c1cccc(-c2ccc(F)c(OC)c2)c1	< 20000
< 126	< 251	< 398	< 631	COc1cc(-c2cccc(C(=O)NCNC(=O)[C@H](CCc3ccccc3)CN(O)C=O)c2)c(OC)nn1	< 20000
< 126	< 251	< 398	< 631	CCCCC[C@H](CN(O)C=O)C(=O)NCNC(=O)c1cccc(-c2cccc(OCC(F)(F)F)c2)c1	< 20000
< 126	< 251	< 398	< 631	O=CN(O)C[C@@H](CC1CCCC1)C(=O)NCNC(=O)c1cccc(-c2cccc(OC(F)(F)F)c2)c1	< 20000
< 126	< 251	< 398	< 631	O=CN(O)C[C@@H](CC1CCCC1)C(=O)NCNC(=O)c1cccc(-c2cccc(O)c2)c1	< 20000
< 126	< 251	< 398	< 631	COc1cc(OC)cc(-c2cccc(C(=O)NCNC(=O)[C@H](CC3CCCC3)CN(O)C=O)c2)c1	< 20000
< 126	< 251	< 398	< 631	CCCCC[C@H](CN(O)C=O)C(=O)NCNC(=O)c1cccc(-c2cccc(S(C)(=O)=O)c2)c1	< 20000
< 126	< 251	< 398	< 631	CCCCC[C@H](CN(O)C=O)C(=O)NCNC(=O)c1cccc(-c2ccccc2F)c1	< 20000
